Results published in article PMC8252455, “Prediction of a clinically effective dose of THY1773, a novel V 1B receptor antagonist, based on preclinical data” (Biopharmaceutics & Drug Disposition, 2021).
“And” between values parts separate entries of the source, which are not always exact repeats. Identical values can stand only once.

What was measured:
[1] = target: anterior pituitary V1B receptor; test: Rat V1B RO study using a tritium labeled V1B receptor ligand; conditions: in vivo; estimated from RO study of Kamiya et al., 2020
[2] = Phase 1 single ascending dose study of TS-121 capsules; type: in vivo, human
Experimental: The plasma concentration–time profiles of THY1773 were analyzed by a non‐compartmental analysis with PK analysis software Phoenix WinNonlin® (version 6.1; Certara), and the PK parameters were calculated. The fraction excreted in urine was calculated by dividing the amount of THY1773 excreted in urine by the administered dose.
A first‐in‐human, randomized, double‐blind, placebo‐controlled, adaptive, single‐ascending dose study was conducted to evaluate the safety, tolerability, and PK of single oral doses of TS‐121 capsules in the United States. This study was conducted in accordance with the ethical principles of the Declaration of Helsinki, International Council for Harmonization Good Clinical Practice Guidelines, and the United States Food and Drug Administration Code of Federal Regulations. The study was approved by an institutional ethical review board. All subjects provided written informed consent before participating in the study. Sixty‐eight healthy male or female volunteers were enrolled and received a single oral dose of either TS‐121 capsules (0.5, 2.5, 4, 8, 15, 30, or 50 mg as THY1773/day) or placebo in a 3:1 ratio in a fasted state.
Blood samples were collected at predose and 0.25, 0.5, 0.75, 1, 1.5, 2, 3, 4, 6, 8, 10, 12, 24, 36, and 48 h postdose. Urine samples were collected before dosing and at the following time intervals after dosing: 0–6, 6–12, 12–24, 24–36, and 36–48 h. THY1773 plasma and urine concentrations were determined by validated LC‐MS/MS methods. PK parameters were evaluated following the method as described in Section 2.5 PK analysis.

[3] = Blood-to-plasma ratio in dog whole blood; type: in vitro ADME; conditions: 1 μmol/L
Experimental: (§1) The blood‐to‐plasma ratios of THY1773 were analyzed using pooled fresh whole blood (anticoagulant: EDTA‐2K) and control plasma separated from fresh whole blood in parallel from rats, dogs, and humans. Whole blood and control plasma containing 1 μmol/L THY1773 were incubated at 37°C for 30 min in a shaking water bath. The incubated whole blood was centrifuged at 2000 × g for 10 min at 4°C to obtain plasma. An aliquot of each plasma sample (i.e., isolated plasma from incubated whole blood and control plasma) was mixed with 8 volumes of acetonitrile/methanol (9:1, vol/vol) containing the IS. After centrifugation at 3974 × g for 10 min at 4°C, the supernatant was subjected to liquid chromatography/tandem mass spectrometry (LC‐MS/MS) analysis. The blood‐to‐plasma ratio was calculated by dividing the […].

[4] = Blood-to-plasma ratio in rat whole blood; type: in vitro ADME; conditions: 1 μmol/L
Experimental: as §1

[5] = target: T1, human V1B receptor (Homo sapiens, UniProt P47901); test: In vitro [3H]AVP binding assay, membranes of 1321-N1 cells expressing human V1B receptor; conditions: 1321-N1 cell membranes, read-out: EC50 of RO model (Ki value for human V1B receptor binding inhibition)
T1 construct: expressed in transfected cells; host or cells: 1321-N1 cells (membranes)
T1 sequence (P47901 1-424): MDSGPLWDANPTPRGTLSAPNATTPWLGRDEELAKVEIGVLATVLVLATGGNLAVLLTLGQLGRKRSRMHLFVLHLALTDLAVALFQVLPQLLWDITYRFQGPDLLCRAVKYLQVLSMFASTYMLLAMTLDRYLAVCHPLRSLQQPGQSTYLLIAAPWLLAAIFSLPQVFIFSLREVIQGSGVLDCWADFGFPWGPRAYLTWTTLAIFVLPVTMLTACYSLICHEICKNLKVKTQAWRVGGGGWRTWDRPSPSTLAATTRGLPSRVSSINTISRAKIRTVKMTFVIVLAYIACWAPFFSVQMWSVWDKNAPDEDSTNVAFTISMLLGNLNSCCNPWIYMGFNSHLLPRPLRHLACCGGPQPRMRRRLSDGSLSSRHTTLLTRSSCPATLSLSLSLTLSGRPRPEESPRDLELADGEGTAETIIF

[6] = target: T2, rat anterior pituitary membrane V1B receptor (Rattus norvegicus, UniProt P48974); test: In vitro binding, rat anterior pituitary membrane V1B receptor; conditions: unpublished data
T2 construct: rat anterior pituitary membrane V1B receptor; from tissue; host or cells: rat anterior pituitary membranes
T2 sequence (P48974 1-425): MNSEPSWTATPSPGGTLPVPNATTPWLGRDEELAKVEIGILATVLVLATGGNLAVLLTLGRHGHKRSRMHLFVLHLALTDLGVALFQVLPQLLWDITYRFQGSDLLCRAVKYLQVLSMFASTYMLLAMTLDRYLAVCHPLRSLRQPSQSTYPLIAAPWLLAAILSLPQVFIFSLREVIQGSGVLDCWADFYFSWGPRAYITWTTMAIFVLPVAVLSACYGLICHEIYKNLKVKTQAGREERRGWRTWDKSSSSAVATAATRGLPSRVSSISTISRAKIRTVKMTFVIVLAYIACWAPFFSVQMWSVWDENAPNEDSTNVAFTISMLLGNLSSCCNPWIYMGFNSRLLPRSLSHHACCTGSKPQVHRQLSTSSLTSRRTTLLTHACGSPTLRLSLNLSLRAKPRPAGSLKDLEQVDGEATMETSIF

[7] = human, average over dose range 0.5 to 50 mg
[8] = human, single oral 30 mg, fasted, mean

Q: What does the source list for `CC(C)NC(=O)Cn1c(-c2cccc(Cl)c2)nn(-c2ccc(CCN3CCOCC3)cc2)c1=O` [THY1773]?
A: EC50 [1]: 4.8 nM; Observed CLrenal compared with predicted value ([2]; human): lower than the predicted value; Observed oral blood CL as share of hepatic blood flow ([2]; human): 2.6 % of the hepatic blood flow; Apparent volume of distribution during the terminal phase [2, 7]: 40.6 L; Oral CLtotal [2, 7]: 1.32 L/h; Dose linearity of PK ([2]; human, dose range 0.5–50 mg): linear PK; AUC0‐∞ [2, 8]: 21340 ng·h/mL; CLpo [2, 8]: 1.52 L/h; Cmax [2, 8]: 949 ng/mL; Vdz/F [2, 8]: 43.6 L; tmax ([2]; human, single oral 30 mg, fasted, median): 1.3 h and 1.27 h; Urinary excretion of unchanged drug ([2]; human, within 48 h post oral dosing, average over dose range): 4.2%; Observed human CLtotal/F ([2]; oral, phase 1 study): 0.287 mL/min/kg; Observed human Vdz/F ([2]; oral, phase 1 study): 0.528 L/kg; Blood-to-plasma ratio [3]: 0.846; Blood-to-plasma ratio [4]: 0.822; Ki [5]: 3.51 nM; Ki [6]: 80.1 nM
